Measurements taken from US8802662B2, “Anti-hepatitis C composition and method for preparing drug for inhibiting hepatitis C viruses or treating hepatitis C” (Industrial Technology Research Institute, priority 2009, dated 2014).
Values after ≈ are worked out from the molar mass of the structure shown.

How the values were obtained:
[1] = system: HCV replicon (I389luc-ubi-NS3-3′/ET) in Huh-luc/neo-ET cell; experiment: HCV replication inhibition by firefly luciferase activity in Huh-luc/neo-ET cells (HCV replicon system); conditions: for IC50 / IC90: Hepatitis C virus, Huh-luc/neo-ET, 48 h; for IC50: read-out: IC50: 50% of the HCV replication inhibition concentration, Huh-luc/neo-ET cells, luciferase activity, co-cultured 2 days; for IC90: read-out: IC90: 90% of the HCV replication inhibition concentration; for IC50: 50% of the HCV replication inhibition concentration: Huh-luc/neo-ET cells, luciferase activity, co-cultured 2 days; for EW (effect window, CC50/IC50): ratio of CC50 to IC50 in Huh-luc/neo-ET cells
Excerpt: The Huh-luc/neo-ET cell has I389luc-ubi-NS3-3′/ET replicon and could be used to monitor the replicative capability of the HCV. The Huh-luc/neo-ET is able to express a firefly luciferase-ubiquitin-neomycin fusion protein translated by the internal ribosomal entry site (IRES) of the hepatitis C virus and is able to express the hepatitis C viral nonstructural protein (NS3-5B) including protease, helicase and polymerase translated by the IRES of the encephalomyocarditis virus (EMCV). When the replication complex composed of the IRES of the hepatitis C virus or the nonstructural protein of the hepatitis C virus is influenced by a candidate, the effect of the candidate for inhibiting the activity of the hepatitis C virus repilcon can be estimated by determining the intensity of the firefly luciferase activity. The hepatitis C virus inhibition effect of the limonoid compound can be determined by determining the firefly luciferase activity expressed by the Huh-luc/noe-ET cell in presence of the limonoid compound.
5.96 g of chuanlianzi ethanol extract was dissolved in 20 ml of a mixture of methanol and water and extracted with 15 ml of n-hexane, diethyl ether, dichloromethane and ethyl acetate for 2-3 times, respectively to obtain an n-hexane layer extraction solution, diethyl ether layer extraction solution, dichloromethane layer extraction solution and ethyl acetate layer extraction solution, respectively. Each layer extraction solution was concentrated and dried to obtain an n-hexane layer extract, diethyl ether layer extract, dichloromethane layer extract and ethyl acetate layer extract, respectively. The hepatitis C inhibition activity of each layer extract was determined by using a Huh-luc/neo-ET cell (HCV replication system) for testing thereof.
The Huh-luc/neo-ET cells were co-cultured with toosendanin with concentrations of 0.15 μg/ml, 0.075 μg/ml, 0.038 μg/ml, 0.019 μg/ml and 0.0085 μg/ml, respectively for 2 days and then were washed twice by 100 μl of 1×PBS (1 mM KH2PO4, 10 mM Na2HPO4, 137 mM NaCl, 2.7 mM KCl) and PBS was removed. 35 μl of 1× passive lysis buffer (Promega, E1941) was added to the cells and vortexed by a vortexer for 10 minutes to thoroughly mix the cells.
Cell suspension with an amount of 30 μl/well was added to a 96 well white plate(NUNC, 236108) for measuring luciferase activity, and 40 μl/well of luminescence analysis buffer and 20 μl/well of luminescence substrate (1 mM D-Luciferin) were sequentially added into the 96 well white plates. After the substrate was added, a microplate luminescence meter (Berthold, MPL4) was used to measure the luciferase activity (Rlu/s).
The luciferase activity of the control group was used as a standard to calculate the hepatitis C virus inhibition rates (%) of the experiment groups. The formula of inhibition rates (%) was: {[(luciferase activity of control group)−(luciferase activity of experiment group)]/(luciferase activity of control group)}×100%. After the sample was serial diluted and the HCV replication inhibition rates were determined at different concentrations, 50% of the HCV replication inhibition concentration (IC50) was calculated by grafit5 software (Erithacus Software).
For each experiment, except for the PEG IFN alpha-2a with concentrations of 0.5 ng/ml and 0.1 ng/ml were used as positive controls for the IC50 test. Additionally, cyclosporine A (CsA) with a concentration of 1 μg/ml was also used as a positive control for the IC50 test.
The experiment procedure was the same as Example 2 while the testing sample was replaced with Trichilin H. The Huh-luc/neo-ET cells were co-cultured with Trichilin H with concentrations of 0.75 μg/ml, 0.5 μg/ml, 0.25 μg/ml and 0.125 μg/ml, respectively.

Huh-luc/neo-ET cells = experiment: in vitro; format: cell-based; conditions: MTT, culturing for two days; for CC15: 15% of the cell cytotoxic concentration: from trend line formula (y = 85)
Experimental: (§1) Huh-luc/neo-ET cells with concentration of 2.5×10^4 cells/100 μl/well were seeded into a 96 well culture plate (Corning Incorporation COSTAR, 3599) and placed into a cell incubator for culturing.
(§2) The next day, a toosendanin sample was diluted with a DMEM culture medium to the concentrations of 28.73 μg/ml, 9.57 μg/ml, 3.19 μg/ml, 1.06 μg/ml, 0.35 μg/ml, 0.11 μg/ml, 0.039 μg/ml and 0.013 μg/ml, respectively, or to become the concentrations of 114.92 μg/ml, 38.33 μg/ml, 12.77 μg/ml, 4.25 μg/ml, 1.42 μg/ml, 0.46 μg/ml, 0.16 μg/ml and 0.057 μg/ml, respectively. The initial medium in the 96 well culture plate was sucked out by a vacuum pump (DOAT-704AA) without removing the cells. Then, the toosendanin culture medium with concentrations mentioned above were added into the 96 well culture plate containing cells with amount of 100 μl/well as experiment groups while untreated culture medium were added to the cells as a control group.
(§3) Then, PBS was removed and 50 μl of medium containing MTT (Sigma, M2128) with a concentration of 0.5 mg/ml was added into each well of the 96 well culture plate. After the 96 well culture plate was placed in a CO2 culture incubator for 1 hour, DMSO (Riedel-de Haën, 60153) with amount of 150 μl/well was added into the 96 well culture plate and vortexed by a votexer (KS shaker Type 670) to thoroughly mix the resulting purple precipitate. After the purple precipitate was thoroughly mixed, the 96 well culture plate was placed in a continuous wave length microwell plate analysis system (Molecular Devices, SPECTRAMAX 190) to measure the absorbance of cells at 560 nm.
(§4) The average absorbance of the control groups was used as 100% of the cell survival rates (%) to calculate the cell survival rates (%) of the experiment groups with different concentrations of toosendanin samples. The formula of the cell survival rate was: (absorbance of experiment group/absorbance of the control group)×100%. The cell survival rates of all experiment groups were drawn to form an x-y graph and thus a trend line formula with R^2 value greater than 0.9 was obtained.
(§5) In the trend line formula, when y was 50, the resulting X meant 50% of the cell cytotoxic concentration (CC50) or when y was 85, the resulting X meant 15% of the cell cytotoxic concentration (CC15). Due to the property of the sample, CC15 was calculated from the trend line formula generated by the experiment groups containing samples with concentrations of 3.19 μg/ml, 1.06 μg/ml, 0.35 μg/ml, 0.11 μg/ml and 0.039 μg/ml.
(§6) When the cell survival rates (%) was greater than 85%, it meant that the sample at or less than the concentration (the concentration less than CC15) was non-cytotoxic. […]

in vitro = format: cell-based; conditions: human, Huh-luc/neo-ET cells, MTT, culturing for two days; read-out: CC50: 50% of the cell cytotoxic concentration
Experimental: as §1, §2, §3, §4, §5, §6

| SMILES | IC50 [1] [µg/mL] | IC90 [1] [µg/mL] | IC50: 50% of the HCV replication inhibition concentration [1] [µg/mL] | CC15: 15% of the cell cytotoxic concentration (Huh-luc/neo-ET cells) [µg/mL] | CC50 (in vitro) [µg/mL] | EW (effect window, CC50/IC50) [1] | EW (effect window, CC50/IC50) ([1]; listed as toosendanin) | CC50: 50% of the cell cytotoxic concentration (Huh-luc/neo-ET cells) [µg/mL] |
| --- | --- | --- | --- | --- | --- | --- | --- | --- |
| CC(=O)OC1C(OC(C)=O)C2(C)C(OC(=O)C(C)C)OCC3(C1O)C2CC(O)C1(C)C3C(=O)C(OC(C)=O)C2(C)C(c3ccoc3)CC3OC321 (stereo not drawn) [Trichilin H] | < 0.5 | 0.9 (≈ 1.28 µM) | 0.48 ± 0.10 | 0.7 | > 50 |  |  |  |
| CC(=O)O[C@@H]1C[C@H](O)[C@@]23CO[C@@H](O)[C@]1(C)[C@@H]2C[C@@H](O)[C@]1(C)[C@@H]3C(=O)[C@H](OC(C)=O)[C@@]2(C)[C@H](c3ccoc3)C[C@H]3O[C@]321 [Toosendanin, toosendanin] | < 0.05 | 0.35 (≈ 0.609 µM) | 0.045 ± 0.004 | 0.34 |  | >2531.6 | greater than 2500 | >114 |
